Assay results: US20090307784A1, “Methods of Analysing Cell Behaviour” (Medical Research Council, priority 2005, published 2009)

Key:
[1] = tested on: BCC and squamous carcinoma (SCC); settings: cited from earlier work
[2] = tested on: BCC; settings: topical, irradiated patched heterozygote mice; cited from earlier work
[3] = tested on: Gli1; settings: cultured keratinocytes; cited from earlier work
[4] = tested on: transit amplifying cell clones and stem cell clones in tail skin epidermis; test: Topical treatment of tail skin of induced Ahcre^ERT R26^EYFP/wt mice, clonal fate by wholemount confocal imaging; assay type: in vivo, mouse; settings: applied topically to tail skin, compared with vehicle only control
Experimental: The generation of Ahcre^ERT and R26^EYFP/EYFP mice has been described previously (Kemp et al (2004) Nucleic Acids Res 32, e92; Srinivas et al (2001) BMC Dev Biol 1, 4). To induce ere expression AhcreERT R26^EYFP/wt heterozygote animals were given a single intraperitoneal injection of 80 mg/kg β-napthoflavone (SIGMA) and 1 mg tamoxifen free base (MP Biomedicals) dissolved in corn oil. To prepare epidermal wholemounts, mice were killed, and then tail skin was cut into 0.5 cm sections and incubated in 5 mM EDTA/PBS for 4 h at 37 C. Epidermis was then peeled of the dermis and fixed in 4% paraformaldehyde for 1 h at room temperature. Fixed epidermal sheets were stored in PBS at 4C.
Epidermal sheets were blocked and permeabilized by incubation in PB buffer containing 0.5% BSA 0.25% Fish skin gelatin, 0.5% Triton X-100 and Goat/Donkey/Rat serum as appropriate in PBS for 1 h. Primary antibodies were diluted in PB buffer and epidermal sections incubated overnight at room temperature on rocking platform then washed 4×1 h in PBS/0.2% Tween 20. Secondary antibodies were diluted 1:250 in PB buffer, sections incubated overnight, then washed 4×1 h. Samples were rinsed in distilled water and mounted. […]

CC1=C(/C=C/C(C)=C/C=C/C(C)=C/CO)C(C)(C)CCC1 [retinol]
benefit in chemoprevention of BCC and squamous carcinoma (SCC) ([1]; clinical studies): no benefit

COc1cc(C)c(/C=C/C(C)=C/C=C/C(C)=C/C(=O)O)c(C)c1C [acitretin]
effect on SCC and BCC development ([1]; oral, renal transplant patients): may inhibit SCC and BCC development

CCOC(=O)c1ccc(C#Cc2ccc3c(c2)C(C)(C)CCS3)nc1 [tazarotene]
effect on BCC ([1]; topical treatment, clinical studies): regression of BCC | number of BCC induced by UV or ionizing radiation [2]: substantial decrease in the number of BCC

CC1=C(/C=C/C(C)=C/C=C/C(C)=C/C(=O)O)C(C)(C)CCC1 [ATRA, all trans retinoic acid]
effect on Gli1 [3]: inhibition of Gli1 | effect on stem cell clones [4]: expansion of stem cell clones | effect on transit amplifying cell clones [4]: rapid depletion of transit amplifying cell clones

CC1=C(/C=C/C(C)=C/C=C/C(C)=C\C(=O)O)C(C)(C)CCC1 [isotretinoin]
benefit in chemoprevention of BCC and squamous carcinoma (SCC) ([1]; clinical studies): no benefit
